Test system: IL-1β
Assay: IL-1β mRNA expression (qPCR) in zebra fish animal model of DSS-induced inflammatory bowel disease
Assay type: in vivo, zebra fish (Danio rerio: AB)
Conditions: zebra fish larvae, 0.5% DSS, 5 hours treatment; Chemical formula 1 0.3 μM and 1 μM; FIG. 5
Experimental: As a zebra fish animal model of inflammatory bowel disease, wild-type zebra fish (Danio rerio: AB) was used, which was kept in an exclusive breeding facility at conditions including light/dark cycle of 14 hours/10 hours and temperature of 28° C. All the animal experiments were carried out according to the protocol of Ethics Committee for Animal Expectation, Healinno-LS (Registration No.: AEC-20210720-0001), and all the materials were sterilized first before they are used for experiment.
According to a treatment with 0.5% DSS (dextran sulfate sodium, M.W. 36,000-50,000, #160110, MP), which induces “ulcerative colitis” as inflammatory bowel disease by creating a damage in colonic epithelial cells, a zebra fish was induced to have inflammatory bowel disease. Then, by threating the zebra fish with the compound represented by Chemical formula 1 of the present invention at different concentrations (0.3 μM and 1 μM), inhibitory activity on inflammatory bowel disease was examined. […]
The zebra fish larvae which have been treated with the compound represented by Chemical formula 1 of the present invention were then added with TRIzol reagent (300 μl), and then homogenized by using a tissue homogenizer (G20, GINKO). […] Purity and concentration were measured by using a microplate reader (FLUOstar omega, BMG Labtech), and the extracted total RNA was kept at −80° C. […]

Compound	expression amount of IL-1β compared to DSS model group
COC(=O)C[C@H](OC(=O)/C=C/c1ccc(O)c(O)c1)c1ccc(O)c(O)c1 [Compound 1, 3-[3,4-dihydroxyphenyl]acrylic acid 1-[3,4-dihydroxyphenyl]-2-methoxycarbonylethyl ester]	statistically significantly lower
Nc1ccc(O)c(C(=O)O)c1 [Compound 5-ASA, 5-aminosalicylic acid, reference compound]	statistically significantly lower

Source: patent US20240216317A1, “COMPOSITION FOR PREVENTING, AMELIORATING OR TREATING INFLAMMATORY BOWEL DISEASE COMPRISING COMPOUND ISOLATED FROM ISODON EXCISUS AS EFFECTIVE COMPONENT” (HEALINNOLS INC., priority 2022, published 2024)
